In experiment [1] the target is T1, Recombinant BTK^C481S kinase (Homo sapiens, UniProt Q06187, C481S).
T1 construct: purchased SignalChem
As to the kind of experiment: BTK C481S binding affinity (LanthaScreen TR-FRET). Particulars: Kinase Tracer 236, 5 h incubation. The essentials:
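BTK C481S tracer-displacement TR-FRET: 5 nM His-tagged kinase, 2 nM Eu anti-His antibody and 30 nM Kinase Tracer 236 incubated with titrated inhibitor for 5 h in Kinase Buffer A. Read at 340 nm excitation, 615/665 nm emission; IC50 from variable-slope log[inhibitor]–response fit.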

Experiment [2] relates to OCI-Ly10 human DLBCL cells. As to the kind of experiment: OCI-Ly10 anti-proliferative activity (Resazurin). It counts as cell-based. Particulars: OCI-Ly10 cells, 72 h compound treatment, Resazurin, read-out: Proliferation Assay OCI-Ly10-20% FBS. The essentials: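 OCI-Ly10 human DLBCL cells, whose growth depends on NFκB signalling, were seeded at 7.5×10^3 cells per well in 96-well plates with a range of compound concentrations and kept at 37° C for 72 h. Resazurin was then added, and after 5 h fluorescence was read at 590 nm.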

For experiment [3], the target named is T2, Recombinant BTK^WT kinase (Homo sapiens, UniProt Q06187).
T2 construct: purchased Invitrogen
T2 sequence (Q06187 whole entry): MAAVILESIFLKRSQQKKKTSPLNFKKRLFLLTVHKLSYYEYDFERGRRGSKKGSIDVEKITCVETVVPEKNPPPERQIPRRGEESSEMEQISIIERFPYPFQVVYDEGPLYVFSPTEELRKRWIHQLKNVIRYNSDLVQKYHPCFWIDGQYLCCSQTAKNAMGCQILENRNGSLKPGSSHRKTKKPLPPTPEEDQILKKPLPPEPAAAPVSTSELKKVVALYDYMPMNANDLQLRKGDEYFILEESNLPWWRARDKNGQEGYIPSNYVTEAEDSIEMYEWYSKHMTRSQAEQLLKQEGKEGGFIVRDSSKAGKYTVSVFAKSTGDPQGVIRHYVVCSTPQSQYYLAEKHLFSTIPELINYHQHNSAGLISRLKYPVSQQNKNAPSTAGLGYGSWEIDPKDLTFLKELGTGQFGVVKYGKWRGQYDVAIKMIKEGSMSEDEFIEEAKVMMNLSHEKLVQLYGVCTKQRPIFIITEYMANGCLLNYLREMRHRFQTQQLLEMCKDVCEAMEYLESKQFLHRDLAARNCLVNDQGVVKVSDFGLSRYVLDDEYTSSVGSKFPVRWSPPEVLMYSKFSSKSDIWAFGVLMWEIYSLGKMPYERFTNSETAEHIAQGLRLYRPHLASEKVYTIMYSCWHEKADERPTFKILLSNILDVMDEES
As to the kind of experiment: BTK WT binding affinity (LanthaScreen TR-FRET). Conditions: Kinase Tracer 236, 5 h incubation. The method in brief:
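Tracer-displacement TR-FRET: 2.5 nM recombinant BTK^WT, 2 nM Eu anti-His antibody and 15 nM Kinase Tracer 236 incubated with varying inhibitor concentrations for 5 h in Kinase Buffer A. Signal read at 340 nm excitation, 615/665 nm emission; IC50 from variable-slope log[inhibitor]–response fit.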

For the next experiment, the target named is T3, Recombinant EGFR (Homo sapiens, UniProt P00533).
T3 construct: purchased Invitrogen
T3 sequence (P00533 25-1210): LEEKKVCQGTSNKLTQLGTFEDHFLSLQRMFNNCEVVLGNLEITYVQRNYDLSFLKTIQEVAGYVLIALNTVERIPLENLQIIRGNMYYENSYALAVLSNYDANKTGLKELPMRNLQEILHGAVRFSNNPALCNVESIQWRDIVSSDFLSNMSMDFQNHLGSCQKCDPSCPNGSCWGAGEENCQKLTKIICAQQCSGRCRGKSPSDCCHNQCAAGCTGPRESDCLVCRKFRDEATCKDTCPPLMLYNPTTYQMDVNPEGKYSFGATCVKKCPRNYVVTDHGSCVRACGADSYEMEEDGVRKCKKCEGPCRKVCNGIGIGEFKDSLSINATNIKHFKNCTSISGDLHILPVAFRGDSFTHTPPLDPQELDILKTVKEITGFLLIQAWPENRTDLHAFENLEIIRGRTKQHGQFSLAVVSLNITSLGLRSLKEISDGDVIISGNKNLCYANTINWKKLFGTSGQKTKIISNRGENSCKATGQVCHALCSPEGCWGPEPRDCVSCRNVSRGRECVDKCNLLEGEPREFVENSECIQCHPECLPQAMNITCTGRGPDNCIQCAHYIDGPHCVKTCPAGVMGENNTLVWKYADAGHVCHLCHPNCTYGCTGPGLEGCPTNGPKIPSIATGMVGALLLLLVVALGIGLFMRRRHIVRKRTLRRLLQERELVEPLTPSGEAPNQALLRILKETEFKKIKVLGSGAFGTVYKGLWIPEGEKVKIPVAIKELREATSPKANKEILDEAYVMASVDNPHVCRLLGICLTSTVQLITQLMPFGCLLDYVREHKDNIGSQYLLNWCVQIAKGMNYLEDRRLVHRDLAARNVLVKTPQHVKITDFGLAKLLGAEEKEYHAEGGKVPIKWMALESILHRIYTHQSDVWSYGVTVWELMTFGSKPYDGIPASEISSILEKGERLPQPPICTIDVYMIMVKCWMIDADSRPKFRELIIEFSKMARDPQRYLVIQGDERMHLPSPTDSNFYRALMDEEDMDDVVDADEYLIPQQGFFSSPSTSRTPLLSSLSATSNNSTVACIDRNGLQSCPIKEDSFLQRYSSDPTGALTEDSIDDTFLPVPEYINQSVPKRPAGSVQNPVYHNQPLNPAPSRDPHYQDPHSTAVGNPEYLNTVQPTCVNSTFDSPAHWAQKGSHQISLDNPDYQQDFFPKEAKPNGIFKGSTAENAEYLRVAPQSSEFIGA
As to the kind of experiment: EGFR binding affinity (LanthaScreen TR-FRET). Particulars: Kinase Tracer 199, 5 h incubation. The method in brief: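 TR-FRET binding (LanthaScreen) with recombinant EGFR; signal measured across a compound concentration range. IC50 obtained by fitting RFU against log[inhibitor] to a variable-slope model.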

Structures are written as SMILES. Where two headings read alike, the source gives them in different places. A value given as a limit tells only on which side of the number the result lay.

The values below come from patent US11826351B2, “Compounds useful as kinase inhibitors” (Loxo Oncology, Inc., priority 2015, dated 2023).

T1 sequence (Q06187 whole entry C481S): as the sequence (Q06187 whole entry) above, with C481S counted along it

On to `COc1ccccc1C(=O)NCc1ccc(-c2nn(C3CCC(C(=O)N(C)C)CC3)c(N)c2C(N)=O)cc1` (single isomer, unassigned) [Example 57a, 5-amino-1-[4-(dimethylcarbamoyl)cyclohexyl]-3-[4-[[(2-methoxybenzoyl)amino]methyl]phenyl]pyrazole-4-carboxamide], for which the IC50 is less than 10 nM in experiment [1], 10 to 100 nM in experiment [2], less than 10 nM in experiment [3] and 100 to 1000 nM on Recombinant EGFR.
Take `COc1ccc(F)cc1C(=O)NCc1ccc(-c2nn(C3CCCC3)c(N)c2C(N)=O)cc1F` [Example 76, 5-amino-1-cyclopentyl-3-[3-fluoro-4-[[(5-fluoro-2-methoxy-benzoyl)amino]methyl]phenyl]pyrazole-4-carboxamide]: the IC50 in experiment [1] was less than 10 nM; in experiment [2] (Homo sapiens, OCI-Ly10, 72 h), 10 to 100 nM; in experiment [3] it was less than 10 nM; on Recombinant EGFR, 100 to 1000 nM.
`COc1ccccc1C(=O)NCc1ccc(-c2nn(C(C(C)C)C(F)(F)F)c(N)c2C(N)=O)cc1` (stereo not drawn) [Example 171, 5-amino-3-[4-[[(2-methoxybenzoyl)amino]methyl]phenyl]-1-[2-methyl-1-(trifluoromethyl)propyl]pyrazole-4-carboxamide]: the IC50 is less than 10 nM in experiment [1]; 100 to 1000 nM in experiment [2] (Homo sapiens, OCI-Ly10, 72 h); 10 to 100 nM in experiment [3]; 1000 to 10000 nM on Recombinant EGFR.
On the same counts, the results for `COc1ccccc1C(=O)NCc1ccc(-c2nn(-c3cccc(F)c3)c(N)c2C(N)=O)cc1` [Example 32, 5-amino-1-(3-fluorophenyl)-3-[4-[[(2-methoxybenzoyl)amino]methyl]phenyl]pyrazole-4-carboxamide] are less than 10 nM, 10 to 100 nM, less than 10 nM and 100 to 1000 nM.
The matching figures for `COc1ccccc1C(=O)NCC(O)c1ccc(-c2nn(C3CCCC3)c(N)c2C(N)=O)cc1C` (stereo not drawn) [Example 187, 5-amino-1-cyclopentyl-3-[4-[1-hydroxy-2-[(2-methoxybenzoyl)amino]ethyl]-3-methyl-phenyl]pyrazole-4-carboxamide]: 100 to 1000 nM, 100 to 1000 nM, 100 to 1000 nM and 1000 to 10000 nM.
The matching figures for `COc1ccccc1C(=O)NCc1ccc(-c2nn(-c3cccc(C(F)(F)F)c3)c(N)c2C(N)=O)cc1` [Example 16, 5-Amino-3-[4-[[(2-methoxybenzoyl)amino]methyl]phenyl]-1-[3-(trifluoromethyl)phenyl]pyrazole-4-carboxamide]: less than 10 nM, 100 to 1000 nM, 10 to 100 nM and 1000 to 10000 nM.
Turning to `COc1ccc(F)cc1C(=O)NCc1ccc(-c2nn(C3CCOC3)c(N)c2C(N)=O)cc1` (stereo not drawn) [Example 114, 5-amino-3-[4-[[(5-fluoro-2-methoxy-benzoyl)amino]methyl]phenyl]-1-tetrahydrofuran-3-yl-pyrazole-4-carboxamide], the IC50 was less than 10 nM in experiment [1]; 10 to 100 nM in experiment [2] (Homo sapiens, OCI-Ly10, 72 h); less than 10 nM in experiment [3]; 1000 to 10000 nM on Recombinant EGFR.
Consider `COc1ccccc1C(=O)NCc1ccc(-c2nn(C3CCCC3)c(Cl)c2C(N)=O)cc1` [Example 78, 5-chloro-1-cyclopentyl-3-[4-[[(2-methoxybenzoyl)amino]methyl]phenyl]pyrazole-4-carboxamide], for which the IC50 in experiment [1] is 10 to 100 nM; in experiment [2] (Homo sapiens, OCI-Ly10, 72 h), 1000 to 10000 nM; in experiment [3], 10 to 100 nM; on Recombinant EGFR it was more than 10000 nM.
With `COc1ccccc1C(=O)NCc1ccc(-c2nn(C3CCCC(C(=O)N(C)C)C3)c(N)c2C(N)=O)cc1` (single isomer, unassigned) [Example 70, 5-amino-1-[3-(dimethylcarbamoyl)cyclohexyl]-3-[4-[[(2-methoxybenzoyl)amino]methyl]phenyl]pyrazole-4-carboxamide], the IC50 in experiment [1] was less than 10 nM; in experiment [2] (Homo sapiens, OCI-Ly10, 72 h), 10 to 100 nM; in experiment [3], less than 10 nM; at Recombinant EGFR, 100 to 1000 nM.
On to `COc1ccc(F)cc1C(=O)NCc1c(F)cc(-c2nn(C3CCCC3)c(N)c2C(N)=O)cc1F` [Example 139, 5-amino-1-cyclopentyl-3-[3,5-difluoro-4-[[(5-fluoro-2-methoxy-benzoyl)amino]methyl]phenyl]pyrazole-4-carboxamide], for which the IC50 in experiment [1] is less than 10 nM; in experiment [2] (Homo sapiens, OCI-Ly10, 72 h), 100 to 1000 nM; in experiment [3], 10 to 100 nM; on Recombinant EGFR, more than 10000 nM.
The matching figures for `COc1ccccc1C(=O)NCc1ccc(-c2nn(-c3ccncc3)c(N)c2C(N)=O)cc1` [Example 54, 5-amino-3-[4-[[(2-methoxybenzoyl)amino]methyl]phenyl]-1-(4-pyridyl)pyrazole-4-carboxamide]: less than 10 nM, 100 to 1000 nM, 10 to 100 nM and 1000 to 10000 nM.
The matching figures for `COc1ccccc1C(=O)NCc1ccc(-c2nn(C3Cc4ccccc4C3)c(N)c2C(N)=O)cc1` [Example 52, 5-amino-1-indan-2-yl-3-[4-[[(2-methoxybenzoyl)amino]methyl]phenyl]pyrazole-4-carboxamide]: less than 10 nM, 10 to 100 nM, less than 10 nM and 100 to 1000 nM.
For the compound `COc1ccc(F)cc1C(=O)NCc1ccc(-c2nn(C3CCNCC3(F)F)c(N)c2C(N)=O)cc1` (stereo not drawn) [Example 186, 5-amino-1-(3,3-difluoro-4-piperidyl)-3-[4-[[(5-fluoro-2-methoxy-benzoyl)amino]methyl]phenyl]pyrazole-4-carboxamide], the IC50 in experiment [1] is less than 10 nM; in experiment [2] (Homo sapiens, OCI-Ly10, 72 h) it was 10 to 100 nM; in experiment [3], less than 10 nM; at Recombinant EGFR, 1000 to 10000 nM.
`CNc1c(C(N)=O)c(-c2ccc(CNC(=O)c3ccccc3OC)cc2)nn1C1CCC1` [Example 87, 1-cyclobutyl-3-[4-[[(2-methoxybenzoyl)amino]methyl]phenyl]-5-(methylamino)pyrazole-4-carboxamide]: the IC50 in experiment [1] is less than 10 nM; in experiment [2] (Homo sapiens, OCI-Ly10, 72 h), 100 to 1000 nM; in experiment [3], less than 10 nM; on Recombinant EGFR, 100 to 1000 nM.
As to `COc1ccccc1C(=O)NCc1ccc(-c2nn(-c3cc(F)ccc3F)c(N)c2C(N)=O)cc1` [Example 61, 5-amino-1-(2,5-difluorophenyl)-3-[4-[[(2-methoxybenzoyl)amino]methyl]phenyl]pyrazole-4-carboxamide], the IC50 in experiment [1] is less than 10 nM; in experiment [2] (Homo sapiens, OCI-Ly10, 72 h), 10 to 100 nM; in experiment [3], less than 10 nM; at Recombinant EGFR it was 100 to 1000 nM.
Take `COC(=O)c1ccc(-n2nc(-c3ccc(CNC(=O)c4ccccc4OC)cc3)c(C(N)=O)c2N)cc1` [Example 45, Methyl 4-[5-amino-4-carbamoyl-3-[4-[[(2-methoxybenzoyl)amino]methyl]phenyl]pyrazol-1-yl]benzoate]: the IC50 in experiment [1] was less than 10 nM; in experiment [2] (Homo sapiens, OCI-Ly10, 72 h), 10 to 100 nM; in experiment [3], less than 10 nM; on Recombinant EGFR it was 1000 to 10000 nM.
For the compound `COc1ccccc1C(=O)NCc1ccc(-c2nn(C3CCCOC3)c(N)c2C(N)=O)c(F)c1` (stereo not drawn) [Example 102, 5-amino-3-[2-fluoro-4-[[(2-methoxybenzoyl)amino]methyl]phenyl]-1-tetrahydropyran-3-yl-pyrazole-4-carboxamide], the IC50 was less than 10 nM in experiment [1]; 100 to 1000 nM in experiment [2] (Homo sapiens, OCI-Ly10, 72 h); less than 10 nM in experiment [3]; more than 10000 nM on Recombinant EGFR.
With `COc1ccccc1C(=O)NCc1ccc(-c2nn(CCN3CCOCC3)c(N)c2C(N)=O)cc1` [Example 9, 5-Amino-3-[4-[[(2-methoxybenzoyl)amino]methyl]phenyl]-1-(2-morpholinoethyl)pyrazole-4-carboxamide], the IC50 in experiment [1] fell in the range of 10 to 100 nM; in experiment [2] (Homo sapiens, OCI-Ly10, 72 h) it was 100 to 1000 nM; in experiment [3], 10 to 100 nM; on Recombinant EGFR it was 1000 to 10000 nM.
As for `COc1ccccc1C(=O)NCc1ccc(-c2nn(C(C)C3CC3)c(N)c2C(N)=O)cc1` (stereo not drawn) [Example 131, 5-amino-1-(1-cyclopropylethyl)-3-[4-[[(2-methoxybenzoyl)amino]methyl]phenyl]pyrazole-4-carboxamide], the IC50 in experiment [1] was less than 10 nM; in experiment [2] (Homo sapiens, OCI-Ly10, 72 h) it was 10 to 100 nM; in experiment [3] it was less than 10 nM; at Recombinant EGFR, 100 to 1000 nM.
As for `COc1ccc(F)cc1C(=O)NCc1cc(F)c(-c2nn(C3CCCC3)c(N)c2C(N)=O)cc1F` [Example 137, 5-amino-1-cyclopentyl-3-[2,5-difluoro-4-[[(5-fluoro-2-methoxy-benzoyl)amino]methyl]phenyl]pyrazole-4-carboxamide], the IC50 in experiment [1] was less than 10 nM; in experiment [2] (Homo sapiens, OCI-Ly10, 72 h) it was 10 to 100 nM; in experiment [3] it was less than 10 nM; on Recombinant EGFR, 1000 to 10000 nM.
In the case of `COc1ccccc1C(=O)NCc1ccc(-c2nn(C3CCC(C)(C)CC3)c(N)c2C(N)=O)cc1` [Example 26, 5-Amino-1-(4,4-dimethylcyclohexyl)-3-[4-[[(2-methoxybenzoyl)amino]methyl]phenyl]pyrazole-4-carboxamide], the IC50 in experiment [1] was less than 10 nM; in experiment [2] (Homo sapiens, OCI-Ly10, 72 h), less than 10 nM; in experiment [3] it was less than 10 nM; on Recombinant EGFR, 10 to 100 nM.
